Source: the supplement of paper PMC10307832

Legend:
Experiment in all cases: relative viability (nuclei count vs DMSO), 5 days (fraction); higher = more cells survive
AZD5582 + Trametinib = compound: C[C@@H](C(=O)N[C@@H](C1CCCCC1)C(=O)N2CCC[C@H]2C(=O)N[C@@H]3[C@@H](CC4=CC=CC=C34)OCC#CC#CCO[C@@H]5CC6=CC=CC=C6[C@@H]5NC(=O)[C@@H]7CCCN7C(=O)[C@H](C8CCCCC8)NC(=O)[C@H](C)NC)NC [AZD5582] + CC(=O)Nc1cccc(-n2c(=O)n(C3CC3)c(=O)c3c(Nc4ccc(I)cc4F)n(C)c(=O)c(C)c32)c1 [Trametinib] (partner 0.02 µM)
Outline: (§1)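 Five library-drug doses in √10 steps were combined with a fixed anchor-drug dose, or a single drug was given alone, by pin tool to lung cancer cell lines in 1536-well plates the day after seeding. Nuclei were stained and counted after 5 days. Relative viability is the nuclei count in treated wells over that in vehicle wells, taken as the median of duplicate plates.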

AZD5582 + Phenformin = compound: C[C@@H](C(=O)N[C@@H](C1CCCCC1)C(=O)N2CCC[C@H]2C(=O)N[C@@H]3[C@@H](CC4=CC=CC=C34)OCC#CC#CCO[C@@H]5CC6=CC=CC=C6[C@@H]5NC(=O)[C@@H]7CCCN7C(=O)[C@H](C8CCCCC8)NC(=O)[C@H](C)NC)NC [AZD5582] + N=C(N)NC(=N)NCCc1ccccc1 [Phenformin] (partner 250 µM)
Outline: as §1

[1] = compound: Cn1nnc2c(C(N)=O)ncn2c1=O [Temozolomide] + CC(C)C[C@H](NC(=O)[C@H](Cc1ccccc1)NC(=O)c1cnccn1)B(O)O [Bortezomib] (partner 0.002 µM)
Outline: as §1

[2] = compound: Cn1nnc2c(C(N)=O)ncn2c1=O [Temozolomide] + O=C(CCCCCCC(=O)Nc1ccccc1)NO [Vorinostat] (partner 1 µM)
Outline: as §1

Row | Cell Line | relative viability (AZD5582 + Trametinib; first compound 0.001581 µM) | relative viability (AZD5582 + Trametinib; first compound 0.005 µM) | relative viability (AZD5582 + Trametinib; first compound 0.01581 µM) | relative viability (AZD5582 + Trametinib; first compound 0.05 µM) | relative viability (AZD5582 + Phenformin; first compound 0.001581 µM) | relative viability (AZD5582 + Phenformin; first compound 0.005 µM) | relative viability (AZD5582 + Phenformin; first compound 0.01581 µM) | relative viability (AZD5582 + Phenformin; first compound 0.05 µM) | relative viability ([1]; first compound 0.2 µM) | relative viability ([1]; first compound 0.6325 µM) | relative viability ([1]; first compound 2 µM) | relative viability ([1]; first compound 6.325 µM) | relative viability ([1]; first compound 20 µM) | relative viability ([2]; first compound 0.2 µM) | relative viability ([2]; first compound 0.6325 µM) | relative viability ([2]; first compound 2 µM) | relative viability ([2]; first compound 6.325 µM) | relative viability ([2]; first compound 20 µM)
1 | HCC-827 | 0.538 | 0.611 | 0.515 | 0.589 | 0.391 | 0.383 | 0.368 | 0.387 | 1.2 | 1.1 | 1.02 | 1.05 | 0.32 | 0.637 | 0.785 | 0.817 | 0.876 | 0.169
2 | HOP-62 | 0.407 | 0.456 | 0.418 | 0.446 | 0.515 | 0.676 | 0.666 | 0.711 | 0.801 | 0.88 | 0.911 | 0.59 | 0.932 | 0.873 | 0.58 | 0.675 | 0.456 | 0.795
3 | IA-LM | – | – | – | – | – | – | – | – | 0.794 | 0.988 | 1.04 | 0.742 | 0.945 | 0.842 | 1.05 | 0.895 | 0.952 | 1.03
4 | LC-2-ad | 0.92 | 1.04 | 0.942 | 1.04 | 0.607 | 0.64 | 0.338 | 0.585 | 1.17 | 0.984 | 1.02 | 0.945 | 0.945 | 0.824 | 0.717 | 0.726 | 0.733 | 0.668
5 | LCLC-97TM1 | 0.203 | 0.25 | 0.184 | 0.189 | 0.402 | 0.467 | 0.2 | 0.409 | 1.48 | 0.594 | 0.749 | 0.68 | 0.687 | 0.98 | 0.763 | 0.659 | 0.514 | 0.628
6 | LCLC-103H | 0.702 | 0.813 | 0.643 | 0.828 | 0.328 | 0.316 | 0.272 | 0.269 | 1.13 | 1.09 | 1.04 | 1.08 | 1.01 | 0.943 | 0.814 | 0.881 | 0.732 | 0.762
7 | LK-2 | 0.466 | 0.81 | 0.731 | 1.04 | 0.433 | 0.588 | 0.393 | 0.402 | – | – | – | – | – | 0.345 | 0.296 | 0.386 | 0.188 | 0.237
8 | LOU-NH91 | 0.772 | 0.767 | 0.781 | 0.808 | 0.716 | 0.698 | 0.592 | 0.741 | 0.487 | 0.514 | 0.565 | 0.543 | 0.456 | 0.799 | 0.934 | 1.03 | 0.923 | 0.797
9 | LU99A | 0.575 | 0.68 | 0.534 | 0.617 | 0.785 | 0.927 | 0.819 | 0.997 | 1.28 | 1.17 | 1.07 | 1.06 | 1.01 | 0.501 | 0.548 | 0.419 | 0.388 | 0.551
10 | NCI-H358 | 0.156 | 0.157 | 0.142 | 0.147 | 0.366 | 0.374 | 0.399 | 0.313 | – | – | – | – | – | 0.558 | 0.656 | 0.6 | 0.647 | 0.553
11 | NCI-H522 | 0.628 | 0.777 | 0.724 | 0.747 | 0.635 | 0.643 | 0.649 | 0.65 | – | – | – | – | – | 0.762 | 1.02 | 1.02 | 0.973 | 0.92
12 | NCI-H1299 | – | – | – | – | – | – | – | – | 1.07 | 1.06 | 1.04 | 1.02 | 1.02 | – | – | – | – | –
13 | NCI-H1395 | 0.961 | 1.22 | – | 1.28 | 0.5 | 0.476 | 0.412 | 0.45 | – | – | – | – | – | 0.901 | 0.837 | 0.663 | 0.569 | 0.673
14 | NCI-H1563 | – | – | – | – | 0.641 | 0.665 | 0.574 | 0.627 | 0.91 | 0.862 | 0.911 | 0.878 | 0.833 | – | – | – | – | –
15 | NCI-H1623 | – | – | – | – | 0.565 | 0.61 | 0.565 | 0.46 | – | – | – | – | – | – | – | – | – | –
16 | NCI-H1648 | 0.38 | 0.511 | – | 0.412 | – | – | – | – | – | – | – | – | – | – | 0.436 | 0.624 | 0.457 | 0.375
17 | NCI-H1792 | 0.347 | 0.482 | 0.478 | 0.669 | – | 0.323 | – | 1.12 | 0.969 | 0.988 | 1.01 | 0.641 | 0.953 | – | – | – | – | –
18 | NCI-H1793 | 0.464 | 0.536 | 0.463 | 0.557 | 0.295 | 0.404 | 0.306 | 0.264 | – | – | – | – | – | – | 0.847 | 0.758 | 0.692 | 0.503
19 | NCI-H1944 | 0.36 | 0.487 | 0.406 | 0.485 | 0.176 | 0.227 | 0.193 | 0.286 | – | – | – | – | – | 0.557 | 0.561 | 0.541 | 0.474 | 0.517
20 | NCI-H2170 | 0.904 | 0.825 | 0.861 | 1.03 | 0.38 | 0.455 | 0.36 | 0.409 | – | – | – | – | – | – | 0.763 | 0.631 | 0.461 | 0.288
21 | NCI-H2342 | 0.792 | 0.922 | 0.693 | 0.932 | 0.551 | 0.556 | 0.528 | 0.634 | – | – | – | – | – | 0.673 | 0.833 | 0.9 | 0.742 | 0.811
22 | SK-MES-1 | 0.675 | 0.949 | 0.542 | 1 | 0.6 | 0.678 | 0.649 | 0.655 | – | – | – | – | – | 1.41 | 1.12 | 1.11 | 1.19 | 1.12
23 | SW 900 | 0.634 | 0.865 | 0.758 | 0.615 | 0.502 | 0.632 | 0.414 | 0.401 | – | – | – | – | – | 0.741 | 0.498 | 0.569 | 0.373 | 0.344
